As a reminder, the Kd is the free concentration of one partner at which half of the binding sites on the other are occupied at equilibrium, for simple one-to-one binding.

The structures appear in SMILES notation. Several values for one entry are separate records, joined by “and”; a condition that tells them apart may be missing. Identical values can stand only once. Like-named read-outs stand apart in the source and are kept apart here. Bridge positions count the residues as written; N and C are the ends. Peptide text beside a SMILES is read from it.

Experimental findings from patent publication US10588935B2, “FC receptor (FcRn) binding peptides and uses thereof” (THE BRIGHAM AND WOMEN'S HOSPITAL, INC., priority 2013, dated 2020) are described below.

The test has as its target T1, soluble human FcRn (Homo sapiens, UniProt P55899).
T1 construct: Soluble human FcRn was expressed and purified by Biogen-Idec as previously described (29)
Description: SPR (Biacore) affinity of peptides for immobilized soluble human FcRn. It counts as binding. The settings on record: Table 2. On the procedure: SPR analyses were conducted using a Biacore 3000 or T100 instrument. Research-grade CM5 sensor chips and all coupling reagents for immobilization were purchased from Biacore. All proteins were cross-linked to the dextran surface of a CM5 sensor chip by standard amine coupling chemistry as recommended by Biacore. […] Binding experiments were performed at pH 6.0 or 7.4 using 50 mM phosphate, 100 mM sodium chloride and 0.01% surfactant P20. […] Bound albumin protein was then allowed to dissociate from the chip for 5 minutes with running buffer. Any remaining albumin was removed from the chip with a 60 second injection (2 cycles) of pH 8.0 Tris-HCl regeneration buffer (1 M Tris pH 8.0) at 25 μL/min flow rate. The binding responses recorded near the end of the association phase were plotted as a function of concentration. Equilibrium dissociation constants (KD), were derived from sensorgrams using the 1:1 binding model of BIAevaluation software 4.1.
Background: In SPR one partner is held on a chip, and binding of the other changes the refractive index at the surface.

[1] abbreviates: pH 6, immobilized shFcRn, data fit steady state or 2 site, read-out: Kd, pH 6** Biacore.
Setting [2] is: pH 7.4, data only 100 uM, therefore Kd may be higher, read-out: Kd, pH 7.4 Biacore.

T1 sequence (P55899 24-297 limits assumed): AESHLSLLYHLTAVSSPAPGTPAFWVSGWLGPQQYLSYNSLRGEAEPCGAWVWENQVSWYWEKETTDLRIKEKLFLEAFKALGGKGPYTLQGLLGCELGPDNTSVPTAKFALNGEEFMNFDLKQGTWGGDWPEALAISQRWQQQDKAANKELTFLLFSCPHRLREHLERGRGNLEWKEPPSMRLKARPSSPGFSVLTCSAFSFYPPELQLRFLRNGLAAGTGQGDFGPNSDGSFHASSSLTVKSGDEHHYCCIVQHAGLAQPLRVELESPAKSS
T1 sequence (P61769 21-119 partner): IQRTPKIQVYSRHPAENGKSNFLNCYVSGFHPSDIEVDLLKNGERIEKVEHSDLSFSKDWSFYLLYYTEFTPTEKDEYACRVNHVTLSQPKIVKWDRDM

Consider `CSCC[C@@H]1NC(=O)[C@H](CCC(=O)O)NC(=O)[C@H](CCC(=O)O)NC(=O)[C@H](CC(=O)O)NC(=O)[C@H](Cc2c[nH]c3ccccc23)NC(=O)[C@H](Cc2c[nH]c3ccccc23)NC(=O)[C@@H](NC(=O)[C@H](CCCCN)NC(=O)[C@H](CCSC)NC(=O)[C@@H](NC(=O)CNC(=O)[C@H](C)NC(C)=O)C(C)C)CSSC[C@@H](C(=O)N[C@@H](CCCNC(=N)N)C(=O)N[C@@H](C)C(=O)N[C@@H](Cc2ccccc2)C(=O)NCC(=O)N[C@H](C(=O)NCC(=O)NCC(=O)NCC(=O)N[C@@H](CCCCN)C(N)=O)[C@@H](C)O)NC(=O)[C@H](CC(C)C)NC1=O` [SYN531] (Ac-AGVMKCWWDEEMLCRAFGTGGGK-NH2; disulfide 6-14 (inferred)), for which the “Kd Ratio 7.4/6.0” value turned out to be 99. Besides, under setting [1], the equilibrium dissociation constant (Kd) was 450 nM and 300 nM.

As to `CSCC[C@H](NC(=O)[C@H](C)NC(C)=O)C(=O)N[C@H](C(=O)N[C@H]1CSSC[C@@H](C(=O)N[C@@H](CCC(=O)O)C(=O)N[C@@H](Cc2ccc(O)cc2)C(=O)N[C@H](C(N)=O)C(C)C)NC(=O)[C@H](CO)NC(=O)[C@H](Cc2ccccc2)NC(=O)CNC(=O)[C@H](CC(=O)O)NC(=O)[C@H](CC(=O)O)NC(=O)[C@H](Cc2c[nH]c3ccccc23)NC(=O)[C@H](CCCCN)NC1=O)[C@@H](C)O` [SYN1144] (Ac-AMTCKWDDGFSCEYV-NH2; disulfide 4-12 (inferred)), the “Kd Ratio 7.4/6.0” value is 23.3.

On to `CSCC[C@H](NC(=O)[C@H](Cc1ccc(O)cc1)NC(C)=O)C(=O)N[C@@H](C)C(=O)N[C@H]1CSSC[C@@H](C(=O)N[C@@H](CCC(=O)O)C(=O)N[C@@H](Cc2ccc(O)cc2)C(=O)N[C@H](C(N)=O)C(C)C)NC(=O)[C@H](CO)NC(=O)[C@H](Cc2ccccc2)NC(=O)CNC(=O)[C@H](CC(=O)O)NC(=O)[C@H](CC(=O)O)NC(=O)[C@H](Cc2c[nH]c3ccccc23)NC(=O)[C@H](CCCCN)NC1=O` [SYN1146] (Ac-YMACKWDDGFSCEYV-NH2; disulfide 4-12 (inferred)), for which the “Kd Ratio 7.4/6.0” value amounted to 34.4. Besides, the Kd under setting [2] turned out to be 8600 nM. As for `CSCC[C@H](NC(=O)[C@H](Cc1ccc(O)cc1)NC(C)=O)C(=O)N[C@H](C(=O)N[C@H]1CSSC[C@@H](C(=O)N[C@@H](CCC(=O)O)C(=O)N[C@@H](Cc2ccc(O)cc2)C(=O)N[C@H](C(N)=O)C(C)C)NC(=O)[C@H](CO)NC(=O)[C@H](Cc2ccccc2)NC(=O)CNC(=O)[C@H](CC(=O)O)NC(=O)[C@H](CC(=O)O)NC(=O)[C@H](Cc2c[nH]c3ccccc23)NC(=O)[C@H](C)NC1=O)[C@@H](C)O` [SYN1147] (Ac-YMTCAWDDGFSCEYV-NH2; disulfide 4-12 (inferred)), the “Kd Ratio 7.4/6.0” value is recorded as 56. Consider `CSCC[C@H](NC(=O)[C@H](Cc1ccc(O)cc1)NC(C)=O)C(=O)N[C@H](C(=O)N[C@H]1CSSC[C@@H](C(=O)N[C@@H](CCC(=O)O)C(=O)N[C@@H](Cc2ccc(O)cc2)C(=O)N[C@H](C(N)=O)C(C)C)NC(=O)[C@H](CO)NC(=O)[C@H](Cc2ccccc2)NC(=O)CNC(=O)[C@H](CC(=O)O)NC(=O)[C@H](C)NC(=O)[C@H](Cc2c[nH]c3ccccc23)NC(=O)[C@H](CCCCN)NC1=O)[C@@H](C)O` [SYN1149] (Ac-YMTCKWADGFSCEYV-NH2; disulfide 4-12 (inferred)), for which the “Kd Ratio 7.4/6.0” value was 7.8. Moreover, the Kd under setting [2] is 12000 nM. For `CSCC[C@H](NC(=O)[C@H](Cc1ccc(O)cc1)NC(C)=O)C(=O)N[C@H](C(=O)N[C@H]1CSSC[C@@H](C(=O)N[C@@H](CCC(=O)O)C(=O)N[C@@H](Cc2ccc(O)cc2)C(=O)N[C@H](C(N)=O)C(C)C)NC(=O)[C@H](CO)NC(=O)[C@H](Cc2ccccc2)NC(=O)CNC(=O)[C@H](C)NC(=O)[C@H](CC(=O)O)NC(=O)[C@H](Cc2c[nH]c3ccccc23)NC(=O)[C@H](CCCCN)NC1=O)[C@@H](C)O` [SYN1150] (Ac-YMTCKWDAGFSCEYV-NH2; disulfide 4-12 (inferred)), the “Kd Ratio 7.4/6.0” value stood at 2.2.

Take `CSCC[C@H](NC(=O)[C@H](Cc1ccc(O)cc1)NC(C)=O)C(=O)N[C@H](C(=O)N[C@H]1CSSC[C@@H](C(=O)N[C@@H](CCC(=O)O)C(=O)N[C@@H](Cc2ccc(O)cc2)C(=O)N[C@H](C(N)=O)C(C)C)NC(=O)[C@H](CO)NC(=O)[C@H](Cc2ccccc2)NC(=O)[C@H](C)NC(=O)[C@H](CC(=O)O)NC(=O)[C@H](CC(=O)O)NC(=O)[C@H](Cc2c[nH]c3ccccc23)NC(=O)[C@H](CCCCN)NC1=O)[C@@H](C)O` [SYN1151] (Ac-YMTCKWDDAFSCEYV-NH2; disulfide 4-12 (inferred)): the “Kd Ratio 7.4/6.0” value is given as 25. In addition, the Kd under setting [1] is 1500 ± 220 nM. As for `CSCC[C@H](NC(=O)[C@H](Cc1ccc(O)cc1)NC(C)=O)C(=O)N[C@H](C(=O)N[C@H]1CSSC[C@@H](C(=O)N[C@@H](C)C(=O)N[C@@H](Cc2ccc(O)cc2)C(=O)N[C@H](C(N)=O)C(C)C)NC(=O)[C@H](CO)NC(=O)[C@H](Cc2ccccc2)NC(=O)CNC(=O)[C@H](CC(=O)O)NC(=O)[C@H](CC(=O)O)NC(=O)[C@H](Cc2c[nH]c3ccccc23)NC(=O)[C@H](CCCCN)NC1=O)[C@@H](C)O` [SYN1154] (Ac-YMTCKWDDGFSCAYV-NH2; disulfide 4-12 (inferred)), the “Kd Ratio 7.4/6.0” value is 20. The Kd under setting [1] is 1500 nM and 460 nM. Consider `CSCC[C@H](NC(=O)[C@H](Cc1ccc(O)cc1)NC(C)=O)C(=O)N[C@H](C(=O)N[C@H]1CSSC[C@@H](C(=O)N[C@@H](CCC(=O)O)C(=O)N[C@@H](C)C(=O)N[C@H](C(N)=O)C(C)C)NC(=O)[C@H](CO)NC(=O)[C@H](Cc2ccccc2)NC(=O)CNC(=O)[C@H](CC(=O)O)NC(=O)[C@H](CC(=O)O)NC(=O)[C@H](Cc2c[nH]c3ccccc23)NC(=O)[C@H](CCCCN)NC1=O)[C@@H](C)O` [SYN1155] (Ac-YMTCKWDDGFSCEAV-NH2; disulfide 4-12 (inferred)), for which the “Kd Ratio 7.4/6.0” value was determined as 9.8. Under setting [2], the Kd stood at 17300 nM. The matching figures for `CSCC[C@H](NC(=O)[C@H](Cc1ccc(O)cc1)NC(C)=O)C(=O)N[C@H](C(=O)N[C@H]1CSSC[C@@H](C(=O)N[C@@H](CCC(=O)O)C(=O)N[C@@H](Cc2ccc(O)cc2)C(=O)N[C@@H](C)C(N)=O)NC(=O)[C@H](CO)NC(=O)[C@H](Cc2ccccc2)NC(=O)CNC(=O)[C@H](CC(=O)O)NC(=O)[C@H](CC(=O)O)NC(=O)[C@H](Cc2c[nH]c3ccccc23)NC(=O)[C@H](CCCCN)NC1=O)[C@@H](C)O` [SYN1156] (Ac-YMTCKWDDGFSCEYA-NH2; disulfide 4-12 (inferred)): 38 and 22000 nM. As to `CSCC[C@H](NC(=O)[C@H](Cc1ccc(O)cc1)NC(C)=O)C(=O)N[C@H](C(=O)N[C@H]1CSSC[C@@H](C(=O)N[C@@H](CCC(=O)O)C(=O)N[C@@H](Cc2ccc(O)cc2)C(N)=O)NC(=O)[C@H](CO)NC(=O)[C@H](Cc2ccccc2)NC(=O)CNC(=O)[C@H](CC(=O)O)NC(=O)[C@H](CC(=O)O)NC(=O)[C@H](Cc2c[nH]c3ccccc23)NC(=O)[C@H](CCCCN)NC1=O)[C@@H](C)O` [SYN1164] (Ac-YMTCKWDDGFSCEY-NH2; disulfide 4-12 (inferred)), the Kd under setting [1] is 570 ± 20 nM. For `CSCC[C@H](NC(=O)[C@@H](NC(C)=O)C(C)C)C(=O)N[C@@H](Cc1c[nH]cn1)C(=O)N[C@H]1CSSC[C@@H](C(=O)N[C@@H](CC(=O)O)C(=O)N[C@@H](CCC(N)=O)C(=O)NCC(N)=O)NC(=O)[C@H](CCCCN)NC(=O)[C@H](Cc2ccccc2)NC(=O)[C@H](CCC(=O)O)NC(=O)[C@H](CCC(=O)O)NC(=O)[C@H](CC(=O)O)NC(=O)[C@H](Cc2c[nH]c3ccccc23)NC(=O)[C@H](Cc2ccccc2)NC1=O` [SYN1197] (Ac-VMHCFWDEEFKCDQG-NH2; disulfide 4-12 (inferred)), the “Kd Ratio 7.4/6.0” value came out at 84. Still for that read-out and setting: the result for `CSCC[C@H](NC(=O)[C@@H](NC(C)=O)C(C)C)C(=O)N[C@@H](Cc1c[nH]cn1)C(=O)N[C@H]1CSSC[C@@H](C(=O)N[C@@H](CC(=O)O)C(=O)N[C@@H](CCC(N)=O)C(=O)NCC(N)=O)NC(=O)[C@H](CCCCN)NC(=O)[C@H](Cc2ccccc2)NC(=O)[C@H](C)NC(=O)[C@H](CCC(=O)O)NC(=O)[C@H](CC(=O)O)NC(=O)[C@H](Cc2c[nH]c3ccccc23)NC(=O)[C@H](Cc2ccccc2)NC1=O` [SYN1216] (Ac-VMHCFWDEAFKCDQG-NH2; disulfide 4-12 (inferred)) reads 52. For `CSCC[C@H](NC(=O)[C@@H](NC(C)=O)C(C)C)C(=O)N[C@@H](Cc1c[nH]cn1)C(=O)N[C@H]1CSSC[C@@H](C(=O)N[C@@H](CC(=O)O)C(=O)N[C@@H](CCC(N)=O)C(=O)NCC(N)=O)NC(=O)[C@H](CCCCN)NC(=O)[C@H](Cc2ccccc2)NC(=O)[C@H](CCC(=O)O)NC(=O)[C@H](CCC(=O)O)NC(=O)[C@H](CC(=O)O)NC(=O)[C@H](Cc2c[nH]c3ccccc23)NC(=O)[C@H](C)NC1=O` [SYN1217] (Ac-VMHCAWDEEFKCDQG-NH2; disulfide 4-12), the Kd under setting [1] was over 20000 nM. The “Kd, pH 7.4 Biacore” value (pH 7.4, data only 100 uM, therefore Kd may be higher) is “no bind”. Take `CSCC[C@H](NC(=O)[C@H](Cc1ccc(O)cc1)NC(C)=O)C(=O)N[C@@H](Cc1c[nH]cn1)C(=O)N[C@H]1CSSC[C@@H](C(=O)N[C@@H](CC(=O)O)C(=O)N[C@@H](CCC(N)=O)C(=O)NCC(N)=O)NC(=O)[C@H](CCCCN)NC(=O)[C@H](Cc2ccccc2)NC(=O)[C@H](CCC(=O)O)NC(=O)[C@H](CCC(=O)O)NC(=O)[C@H](CC(=O)O)NC(=O)[C@H](Cc2c[nH]c3ccccc23)NC(=O)[C@H](Cc2ccccc2)NC1=O` [SYN1256] (Ac-YMHCFWDEEFKCDQG-NH2; disulfide 4-12 (inferred)): the “Kd Ratio 7.4/6.0” value came out at 69.
